Measured values from publication PMC12408343, “Deep learning reveals antibiotics in the archaeal proteome” (Nature Microbiology, 2025).
Values after ≈ are worked out from the molar mass of the structure shown. Peptide text beside a SMILES is read from it.

What was measured:
[1] = system: A. baumannii; experiment: Cytoplasmic membrane fluidity, Laurdan generalized polarization; format: cell-based, Acinetobacter baumannii; conditions: peptides at 100× MIC stock diluted 1:100, 30 min, λex 350, λem 440/490 nm; mean of 3 independent experiments
Text: Fig. 4 Mechanism of action, haemolytic activity and cytotoxicity of antibiotics from the archaeome. […] The fluorescence probe NPN was used to assess membrane permeabilization (a) induced by the tested EPs (Extended Data Fig. 6a). The fluorescence probe DiSC3-5 was used to evaluate membrane depolarization (b) caused by archaeasins (Extended Data Fig. 6b). The shown values represent the relative fluorescence of both probes, with nonlinear fitting compared with the baseline of the untreated control (buffer + bacteria + fluorescence dye) and benchmarked against the antibiotics polymyxin B and levofloxacin. c, Laurdan generalized polarization over time in A. baumannii treated with archaeasins. […] Higher generalized polarization values indicate increased membrane rigidity, whereas lower values reflect increased membrane fluidity. Benzyl alcohol was used as a positive control for membrane fluidization, and untreated cells served as a negative control. […] All experiments were performed in three independent replicates (Extended Data Fig. 7). The protein and peptide structures depicted in panels a and b were created with PyMOL Molecular Graphics System, v.3.0 (Schrödinger).

[2] = system: A. baumannii ATCC 19606; experiment: microbe, parasite or virus in culture
Description: (§1) Briefly, 10^5 bacterial cells were incubated with serially diluted EPs (0–64 μmol l^−1) at 37 °C. Bacterial growth was assessed by measuring the optical density at 600 nm in a microplate reader at 1 day post-treatment. […] Secondary structure fractions were calculated using the BeStSel server. fH and fβ stand for helical and β fractions, respectively.

[3] = system: K. pneumoniae ATCC 13883; experiment: microbe, parasite or virus in culture; conditions: for MIC K. pneumoniae ATCC 13883 (−): ATCC 13883, 24 h; for MIC, K. pneumoniae ATCC 13883 (-): Fig 2a source data, Gram-negative, broth microdilution
Description: as §1

[4] = system: E. coli AIC221; experiment: microbe, parasite or virus in culture; design: MIC, E. coli AIC221 (-): unit not given beside the values; conditions: for MIC E. coli AIC221 (−): AIC221, 24 h; for MIC, E. coli AIC221 (-): Fig 2a source data, Gram-negative, broth microdilution
Description: as §1

[5] = system: E. coli ATCC 11775; experiment: microbe, parasite or virus in culture; design: MIC, E. coli ATCC 11775 (-): unit not given beside the values; conditions: for MIC, E. coli ATCC 11775 (-): Fig 2a source data, Gram-negative, broth microdilution
Description: as §1

[6] = system: human red blood cells (RBCs); conditions: for HC50 (source data of Fig. 4) / HC50, peptide concentration leading to 50% RBC lysis: red cells of human, 4 h
Description: To assess the potential toxicity of the synthesized archaeasins, we exposed them to human red blood cells (RBCs), a common method for evaluating the toxicity of antimicrobial agents[20],[26],[27].
To evaluate the release of haemoglobin from human erythrocytes upon treatment of each of the EPs, human RBCs were obtained from Zen-Bio (donor, blood type A^−) obtained from heparin anti-coagulated blood. RBCs were washed with PBS (pH 7.4) 4× by centrifugation at 800g for 10 min. Aliquots of 200-fold-diluted cells (75 μl) were mixed with peptide solution (0.78–100 μmol l^−1; 75 μl), and the mixture was incubated for 4 h at room temperature. After incubation, the plate was centrifuged at 1,300g for 10 min to precipitate cells and debris, and 100 μl of supernatant from each well was transferred to a new 96-well plate for absorbance reading (405 nm) using an automatic plate reader. The percentage of haemolysis was defined by comparison with negative control (samples containing PBS) and positive control (samples containing 1% (v/v) SDS in PBS solution). Haemolysis(%)=100×(absorbance405nmpeptide−absorbance405nmnegativecontrol)/(absorbance405nmpositivecontrol−absorbance405nmnegativecontrol)
All assays were performed in three independent biological replicates as indicated in each figure legend and in the Methods. […] In the skin abscess and thigh infection mouse models, we used six mice per group following established protocols approved by the University Laboratory of Animal Resources of the University of Pennsylvania.
Extended Data Fig. 7 Hemolytic activity of archaeasins. Hemolytic activity was assessed by exposing red blood cells to archaeasins, with lysis determined by absorbance readings after 4 h. The peptides were added to plates and subjected to a two-fold dilution series (ranging from 64 to 4 μmol L^−1) before exposure to the red blood cells. Source data

[7] = system: E. coli AIC222 (colistin-resistant, CRE); experiment: microbe, parasite or virus in culture; design: MIC, E. coli AIC222 - CRE (-): unit not given beside the values; conditions: Fig 2a source data; Gram-negative, CRE; broth microdilution
Description: as §1

[8] = system: P. aeruginosa PAO1; experiment: microbe, parasite or virus in culture; design: MIC, P. aeruginosa PAO1 (-): unit not given beside the values
Description: as §1

[9] = system: P. aeruginosa PA14; experiment: microbe, parasite or virus in culture; design: MIC, P. aeruginosa PA14 (-): unit not given beside the values
Description: as §1

[10] = system: S. aureus ATCC BAA-1556 (MRSA); experiment: microbe, parasite or virus in culture; design: MIC, S. aureus ATCC BAA-1556 - MRSA (+): unit not given beside the values
Description: as §1

[11] = system: S. aureus ATCC 12600; experiment: microbe, parasite or virus in culture
Description: as §1

[12] = system: E. faecium ATCC 700221 (VRE); experiment: microbe, parasite or virus in culture; conditions: for MIC E. faecium ATCC 700221 – VRE (+): ATCC 700221, 24 h; for MIC, E. faecium ATCC 700221 - VRE (+): Fig 2a source data, Gram-positive, broth microdilution
Description: as §1

[13] = Fig 2a source data, Gram-negative, broth microdilution

SMILES	Laurdan generalized polarization change of cytoplasmic membrane [1]	MIC, A. baumannii ATCC 19606 (-) [2]	MIC K. pneumoniae ATCC 13883 (−) [3] [µM]	MIC, K. pneumoniae ATCC 13883 (-) [3]	MIC E. coli AIC221 (−) [4] [µM]	MIC, E. coli AIC221 (-) [4]	MIC, E. coli ATCC 11775 (-) [5]	HC50 (source data of Fig. 4) [6] [µmol/L]	HC50, peptide concentration leading to 50% RBC lysis [6] [µmol/L]	MIC, E. coli AIC222 - CRE (-) [7]	MIC E. faecium ATCC 700221 – VRE (+) [12] [µM]	MIC, E. faecium ATCC 700221 - VRE (+) [12]	further results
CC[C@H](C)[C@H](N)C(=O)NCC(=O)N[C@@H](Cc1c[nH]c2ccccc12)C(=O)N[C@H](C(=O)N[C@@H](CO)C(=O)N[C@@H](CC(N)=O)C(=O)N[C@@H](CCCNC(=N)N)C(=O)N[C@H](C(=O)N[C@H](C(=O)N[C@@H](CC(C)C)C(=O)N[C@@H](CCCCN)C(=O)N[C@@H](CC(C)C)C(=O)N[C@@H](CC(C)C)C(=O)N[C@@H](CCCNC(=N)N)C(=O)N[C@@H](Cc1ccccc1)C(=O)N[C@@H](C)C(=O)N[C@@H](CCCCN)C(=O)N[C@@H](CC(N)=O)C(=O)N[C@@H](CCSC)C(=O)N[C@@H](CCCCN)C(=O)O)[C@@H](C)CC)C(C)C)[C@@H](C)CC [Archaeasin-22] (H-IGWISNRVILKLLRFAKNMK-OH; N-terminus and C-terminus assumed)	only modest or even decreasing generalized polarization shifts	1	16 (≈ 38.4 µg/mL)	16	2 (≈ 4.8 µg/mL)	2	16	7.224	7	4			MIC E. coli ATCC 11775 (−) ([5]; ATCC 11775, 24 h): 16 µM (≈ 38.4 µg/mL)
CC[C@H](C)[C@H](NC(=O)[C@H](CC(C)C)NC(=O)[C@H](CC(C)C)NC(=O)[C@H](CCCNC(=N)N)NC(=O)[C@H](C)NC(=O)[C@H](CC(C)C)NC(=O)[C@H](Cc1ccc(O)cc1)NC(=O)CNC(=O)[C@H](C)NC(=O)CN)C(=O)N[C@@H](CCCNC(=N)N)C(=O)N[C@@H](CCCNC(=N)N)C(=O)N[C@@H](CO)C(=O)N[C@@H](CC(C)C)C(=O)N[C@@H](CCCNC(=N)N)C(=O)N[C@@H](CC(C)C)C(=O)N[C@@H](CC(C)C)C(=O)N[C@@H](CCCNC(=N)N)C(=O)N[C@@H](CCCNC(=N)N)C(=O)N[C@@H](CC(C)C)C(=O)O [Archaeasin-78] (H-GAGYLARLLIRRSLRLLRRL-OH; N-terminus and C-terminus assumed)	pronounced increases in generalized polarization values over time	1	4 (≈ 9.47 µg/mL)	4	1 (≈ 2.37 µg/mL)	1	32	5.537	6	4	1 (≈ 2.37 µg/mL)	1	MIC, P. aeruginosa PAO1 (-) [8, 13]: 8; MIC P. aeruginosa PAO1 (−) ([8]; PAO1, 24 h): 8 µM (≈ 18.9 µg/mL); MIC, P. aeruginosa PA14 (-) [9, 13]: 16; MIC P. aeruginosa PA14 (−) ([9]; PA14, 24 h): 16 µM (≈ 37.9 µg/mL); MIC S. aureus ATCC BAA-1556 – MRSA (+) ([10]; ATCC BAA-1556, 24 h): 8 µM (≈ 18.9 µg/mL); MIC, S. aureus ATCC BAA-1556 - MRSA (+) ([10]; Fig 2a source data, Gram-positive, MRSA, broth microdilution): 8; MIC S. aureus ATCC 12600 (+) ([11]; ATCC 12600, 24 h): 8 µmol/L (≈ 18.9 µg/mL); MIC S. aureus ATCC 12600 (+) ([11]; Fig 2a source data, Gram-positive, broth microdilution): 8; haemolytic effects [6]: did show haemolytic effects
CC[C@H](C)[C@H](N)C(=O)N[C@@H](CC(C)C)C(=O)NCC(=O)NCC(=O)N[C@@H](CCCCN)C(=O)N[C@@H](CC(C)C)C(=O)N[C@H](C(=O)N[C@@H](CCCCN)C(=O)N[C@@H](CCCCN)C(=O)N[C@@H](CO)C(=O)N[C@@H](CC(C)C)C(=O)N[C@@H](CCCCN)C(=O)N[C@@H](CC(C)C)C(=O)O)[C@@H](C)CC [Archaeasin-21] (H-ILGGKLIKKSLKL-OH; N-terminus and C-terminus assumed)	only modest or even decreasing generalized polarization shifts	64								64	64 (≈ 90.3 µg/mL)	64	
CC[C@H](C)[C@H](NC(=O)[C@H](Cc1c[nH]c2ccccc12)NC(=O)[C@H](CCCCN)NC(=O)[C@H](CC(C)C)NC(=O)[C@H](CCCNC(=N)N)NC(=O)[C@H](C)NC(=O)[C@H](CCCNC(=N)N)NC(=O)[C@H](C)NC(=O)[C@H](CC(C)C)NC(=O)[C@H](Cc1c[nH]c2ccccc12)NC(=O)[C@@H](N)CC(C)C)C(=O)N[C@H](C(=O)O)[C@@H](C)O [Archaeasin-57] (H-LWLARARLKWIT-OH; N-terminus and C-terminus assumed)	pronounced increases in generalized polarization values over time	16			64 (≈ 97.7 µg/mL)	64		203.9		64	8 (≈ 12.2 µg/mL)	8	
